{
  "source": "patent US20240415894A1",
  "about": "“MITOCHONDRIAL AUGMENTATION THERAPY WITH STEM CELLS ENRICHED WITH FUNCTIONAL MITOCHONDRIA” (Minovia Therapeutics Ltd., priority 2018, published 2024)",
  "test_system": "Mouse fibroblast cells (3T3)",
  "assay": "ATP level in Rotenone-treated mouse fibroblast cells (ATPlite kit)",
  "format": "cell-based",
  "settings": "0.5 μM Rotenone for 4 hours; vs control cells",
  "procedure": "Mouse fibroblast cells (104, 3T3) were either not treated (control) or treated with 0.5 μM Rotenone (Rotenone, mitochondrial complex I irreversible inhibitor, CAS number 83-79-4) for 4 hours, washed, and further treated with 0.02 mg/ml mouse placental mitochondria (Rotenone+Mitochondria) for 3 hours. The cells were washed and ATP level was determined using the Perkin Elmer ATPlite kit (FIG. 2), as previously shown in WO 2016/135723.",
  "data": [
    {"smiles": "C=C(C)[C@H]1Cc2c(ccc3c2O[C@@H]2COc4cc(OC)c(OC)cc4[C@@H]2C3=O)O1", "note": "[Rotenone]", "values": [
      {"measurement": "decrease of ATP levels", "result": "about 50%"}
    ]}
  ]
}
